Measured values taken from US9907857B2, “Peptide having cell membrane penetrating activity” (EWHA UNIVERSITY-INDUSTRY COLLABORATION FOUNDATION, priority 2006, dated 2018).
Several values for one entry are separate records, joined by “and”; a condition that tells them apart may be missing. Identical values can stand only once. Entries after “also recorded” stand apart in the source; their conditions may differ.

How the values were obtained:
HeLa cells [1] = test: Cell penetrating activity of FITC-labelled mutant peptides, mean fluorescence intensity by FACS; format: cell-based; conditions: for mean fluorescence intensity (MFI) relative to WT, MFI of WT at 10 μM set to 1: peptide at 10 μM; for mean fluorescence intensity (MFI) relative to WT, MFI of WT at 10 μM set to 1 / mean fluorescence intensity (MFI) relative to WT / translocation efficiency compared with another peptide variant (comparator named in the value): 2 hours, FACS; for mean fluorescence intensity (MFI) relative to WT: peptide at 100 μM; for penetrating activity compared with TAT: 100 μM
Method: N-terminus of each peptide was labeled with fluorescence dye, FITC and C-terminus was protected. Peptide purity (>95%) was determined by HPLC. Synthesis of the peptides of the present invention was requested to PEPTRON, Inc.
HeLa cell line was propagated in DMEM supplemented with 10% FBS and 100 units/mL penicillin-streptomycin. Cells were grown in a 5% CO2 incubator at 37° C.
HeLa cells were cultured in 6-well plate until they were 70˜80% grown up before a day of the experiment. The cells were washed with DMEM of 37° C. twice, and TCTP-derived peptides synthesized in Example 5-1) were treated to the culture medium in a dose dependent manner (0, 1, 10, 100 μM), then the cells was incubated for 2 hours in an CO2 incubator at 37° C.,
After the incubation, the cells were washed in cool PBS two times and treated with 1 mg/ml trypsin for 15 min at 37° C. to digest peptides attached on cell membrane and washed in PBS twice again. Then, the cells were analyzed by FACS at emission 510 nm and excitation 530 nm for a measurement of FITC of intracellular uptake marker (FIGS. 7, 8 and 9). Intracellular translocation efficiency of mutant peptides, TCTP-CPP#1-35(SEQ ID Nos.: 20-54) was compared to wild type(WT), TCTP(1-10)(SEQ ID No.: 1) and control peptide, TAT(48-57).

HeLa cells [2] = test: Cell penetrating efficiency of rhodamine-labelled TCTP-derived peptides, microplate fluorescence reader; format: cell-based; conditions: for intracellular translocation, dependence on concentration: 0-100 μM, 15 minutes or 2 hours; for efficiency versus control peptide TAT at low concentration: 1 μM and 10 μM; for cell penetrating activity / translocation efficiency in comparison with TAT (words): HeLa, rhodamine-labelled peptides, overall
Method: N-terminus of each peptides was labeled with fluorescence dye, rhodamine and C-terminus was protected. Peptide purity (>95%) was determined by HPLC. Synthesis of the peptides was requested to PEPTRON, Inc.
HeLa cell line (ATCC) was propagated in DMEM (GIBCO) supplemented with 10% FBS (GIBCO) and 100 units/mL penicillin-streptomycin. Cells were grown in a 5% CO2 incubator at 37° C.
HeLa cells were cultured in 48-well plate until they were 70˜80% grown up before a day of the experiment. The cells were washed with DMEM of 37° C. twice, and TCTP-derived peptides synthesized in Example 2-1) were treated to the culture medium in a dose dependent manner (0, 1, 5, 10, 50, 100 μM), then the cells was incubated for 15 minutes or 2 hours in an CO2 incubator at 37° C.
After the incubation, the cells were washed in cool PBS three times and immediately measured by a microplate fluorescence reader (BIO-TEK instruments, Inc., Vermont, USA) at emission 530 nm and excitation 590 nm for a measurement of rhodamine of intracellular uptake marker. The sensitivity of reader was set at 100 as a basic mode, but was lowered to 75 if the fluorescent signals were too strong. All experiments were conducted in triplet repeats for reproducibility (FIG. 2 and FIG. 3).

Sequence	mean fluorescence intensity (MFI) relative to WT, MFI of WT at 10 μM set to 1 (HeLa cells [1])	translocation efficiency compared with another peptide variant (comparator named in the value) (HeLa cells [1])	also measured
CIISRDLISH (mutant peptide based on human sequence; (1)..(10) TCTP-CPP#6) [SEQ ID No.: 25]	0.91 times		mean fluorescence intensity (MFI) relative to WT (HeLa cells [1]): 1.81 times
FIIFRIAASHKK (mutant peptide based on human sequence; (1)..(12) TCTP-CPP#15) [SEQ ID No.: 34]		increased result of translocation efficiency at the concentration of 10 μM and a decreased result at 100 μM, compared to SEQ ID No.: 31	
IIYRDLISH ((1)..(9) 2-10 amino acid residue of TCTP; listed as Homo sapiens) [SEQ ID No.: 4, Residues of TCTP(2-10)]			intracellular translocation, dependence on concentration (HeLa cells [2]): not translocated at a concentration of 1 μM to 10 μM; efficiency versus control peptide TAT at low concentration (HeLa cells [2]): lower efficiency than control peptide, TAT; translocation (HeLa cells [2]; 100 μM, 15 minutes treatment): more efficiently translocated at 100 μM after 15 minutes treatment; cell penetrating activity / translocation efficiency in comparison with TAT (words) (HeLa cells [2]): excellent cell penetrating activity in comparison with conventional TAT; cell penetrating activity / translocation efficiency in comparison with TAT (words) (HeLa cells [2]; listed as TCTP (2-10)): superior ability than well-known PTD, TAT in their translocation efficiency; cell penetrating activity / translocation efficiency in comparison with TAT (words) (HeLa cells [2]; listed as TCTP(2-10)): more excellent penetrating activity than well-known TAT(47-58) peptide; translocation versus control peptide TAT(48-57) (HeLa cells [2]; after 2 hours, 100 μM): more efficiently translocated at 100 μM than control peptide
LIIFAIAASHKK (mutant peptide based on human sequence; (1)..(12) TCTP-CPP#34) [SEQ ID No.: 53]	8.24 times		
LIIFRIAASHKK (mutant peptide based on human sequence; (1)..(12) TCTP-CPP#16) [SEQ ID No.: 35]	29.53 times	increased result of translocation efficiency at the concentration of 10 μM and a decreased result at 100 μM, compared to SEQ ID No.: 31	
LIIFRILISHHH (mutant peptide based on human sequence; (1)..(12) TCTP-CPP#30) [SEQ ID No.: 49]			cell penetrating activity compared with TAT (HeLa cells [1]; concentration not given): excellent activity compared with TAT
LIIFRILISHKK (mutant peptide based on human sequence; (1)..(12) TCTP-CPP#27) [SEQ ID No.: 46]	3.75 times	substitution for leucine caused the decreased penetrating activity	
MIIFAIAASHKK (mutant peptide based on human sequence; (1)..(12) TCTP-CPP#26) [SEQ ID No.: 45]	11.47 times		
MIIFKIAASHKK (mutant peptide based on human sequence; (1)..(12) TCTP-CPP#24) [SEQ ID No.: 43]	12.1 times		
MIIFRAAASHKK (mutant peptide based on human sequence; (1)..(12) TCTP-CPP#14) [SEQ ID No.: 33]	3.2 times	similarly increased at 100 μM	
MIIFRDLISH (mutant peptide based on human sequence; (1)..(10) TCTP-CPP#3) [SEQ ID No.: 22]	19.63 times		penetrating activity compared with TAT (HeLa cells [1]): better penetrating activity than TAT(100 μM); mean fluorescence intensity (MFI) relative to WT (HeLa cells [1]): 216.75 times
MIIFRIAASHKK (mutant peptide based on human sequence; (1)..(12) TCTP-CPP#12) [SEQ ID No.: 31]	29 times and 26.77 times	similarly increased at 100 μM	
MIIFRIAAYHKK (mutant peptide based on human sequence; (1)..(12) TCTP-CPP#20) [SEQ ID No.: 39]	25.0 times	lower than SEQ ID No.: 34 at the concentration of 100 μM	
MIIFRILISHKK (mutant peptide based on human sequence; (1)..(12) TCTP-CPP#28) [SEQ ID No.: 47]	7.04 times		
MIIYRAEISH (mutant peptide based on human sequence; (1)..(10) TCTP-CPP#10) [SEQ ID No.: 29]			cell penetrating activity compared with WT SEQ ID No.: 1 (HeLa cells [1]; concentration not given): decreased to same degree with alanine substituent
MIIYRALISHKK (mutant peptide based on human sequence; (1)..(12) TCTP-CPP#7) [SEQ ID No.: 26]	6.04 times		penetrating activity compared with TAT (HeLa cells [1]): better penetrating activity than TAT(100 μM); cell penetrating activity compared with WT SEQ ID No.: 1 (HeLa cells [1]; concentration not given): increased cell penetrating activity; mean fluorescence intensity (MFI) relative to WT (HeLa cells [1]): 144.6 times
MIIYRDKKSH (mutant peptide based on human sequence; (1)..(10) TCTP-CPP#2) [SEQ ID No.: 21]			cell penetrating activity compared with WT SEQ ID No.: 1 (HeLa cells [1]; concentration not given): decreased twice
MIIYRDLI ((1)..(8) 1-8 amino acid residue of TCTP; listed as Homo sapiens) [SEQ ID No.: 3, Residues of TCTP(1-8)]			intracellular translocation, dependence on concentration (HeLa cells [2]): translocated not in 1-10 μM but in 50-100 μM; efficiency versus control peptide TAT at low concentration (HeLa cells [2]): lower efficiency than control peptide, TAT; cell penetrating activity / translocation efficiency in comparison with TAT (words) (HeLa cells [2]): excellent cell penetrating activity in comparison with conventional TAT; cell penetrating activity / translocation efficiency in comparison with TAT (words) (HeLa cells [2]; listed as TCTP (1-8)): superior ability than well-known PTD, TAT in their translocation efficiency; cell penetrating activity / translocation efficiency in comparison with TAT (words) (HeLa cells [2]; listed as TCTP(1-8)): more excellent penetrating activity than well-known TAT(47-58) peptide
MIIYRIAASHKK (mutant peptide based on human sequence; (1)..(12) TCTP-CPP#8) [SEQ ID No.: 27]	1.73 times		penetrating activity compared with TAT (HeLa cells [1]): better penetrating activity than TAT(100 μM); cell penetrating activity compared with WT SEQ ID No.: 1 (HeLa cells [1]; concentration not given): increased cell penetrating activity; mean fluorescence intensity (MFI) relative to WT (HeLa cells [1]): 342.9 times
WIIFKIAASHKK (mutant peptide based on human sequence; (1)..(12) TCTP-CPP#25) [SEQ ID No.: 44]	15.04 times		
WIIFRAAASHKK (mutant peptide based on human sequence; (1)..(12) TCTP-CPP#18) [SEQ ID No.: 37]	52.0 times	lower than SEQ ID No.: 34 at the concentration of 100 μM; also recorded: substitution for tryptophan did not increase translocation efficiency	
WIIFRALISHKK (mutant peptide based on human sequence; (1)..(12) TCTP-CPP#19) [SEQ ID No.: 38]	55.6 times	lower than SEQ ID No.: 34 at the concentration of 100 μM; also recorded: substitution for tryptophan did not increase translocation efficiency	
WIIFRIAASHKK (mutant peptide based on human sequence; (1)..(12) TCTP-CPP#17) [SEQ ID No.: 36]	18.4 times	stronger than SEQ ID No.: 40(WT-IX:Y) and SEQ ID No.: 42(WT-IX:T) only at 10 μM	
